The values that follow come from US3975529A, “Diebenzo(B,E)thiepines” (Roussel-UCLAF, priority 1974, dated 1976).

Assay [1] has as its system antinociceptive activity of oxotremorine. The assay can be described thus: Antagonism of antinociceptive activity of oxotremorine, hot plate (Table III). It is filed as in vivo, mice. The procedure: The antinociceptive activity of oxotremorine [Leslie, J. Pharm. Pharmae., Vol. 2 (1969), p. 248-50] was determined on mice using the hot plate method of Eddy et al [J. Pharmacol. Vol. 107 (1953), p. 385] in the presence and absence of the test product presumed to be antagonistic. The product of Example 1 was administered subcutaneously in aqueous solution at doses of 50 and 100 mg/kg to groups of 10 mice and the products of Examples 2 to 5 were subcutaneously administered in sesame oil solution at doses of 200 and 400 mg/kg to groups of 10 mice. The mice then received a single intraperitoneal injection of 0.5 mg/kg of oxotremorine either 4 hours, 1 day, 2, 3, 4 or 7 days after the test product administration. For each time considerated, the mice were placed on the hot plate one half hour after the oxotremorine administration and the time for the appearance of nociceptive refluxes consistituted by simultaneous licking of the front paws was noted. The maximum time of staying on the hot plate was fixed at 45 seconds and the percentage of animals with a reaction time (RT) less than 40 seconds in spite of oxotremorine administration was determined.

Assay [2] has as its system trembling and peripherical cholinergic manifestations provoked by tremorine. Put plainly: Antitremorine activity as a function of time (Table I). Type of assay: in vivo, mice. The note with it: for % inhibition of reactions: L (lacrymation) / % inhibition of reactions: S (salivation) / % inhibition of reactions: T (trembling): 200 mg/kg s.c. sesame oil. The procedure:
The antagonism of the test compounds to the trembling and peripherical cholinergic manifestations provoked by tremorine [Everett et al, Science, Vol. 124 (1956), p. 79] was studied on mice.
The products of Examples 2 and 3 were administered subcutaneously in sesame oil solution at doses of 200 and 400 mg/kg at a volume of 25 ml/kg to groups of 10 mice. The mice receied intraperitoneal injections of 20 mg/kg of tremorine either for 4 hours, one day, 2, 3 or 4 days after injection of the test product. […] The reactions (T-trembling; S-salivation; L-lacrymation) were noted 10, 20, 30 and 60 minutes after the tremorine injection and the percent of inhibition of the different reactions at the height of the effect after injection of tremorine were noted as a function of time.

[3] abbreviates: 200 mg/kg s.c. sesame oil, after 4 h.
Setting [4] is: 200 mg/kg s.c. sesame oil, after 1 d.
Where [5] appears, read: 200 mg/kg s.c. sesame oil, after 2 d.
Setting [6] is: 200 mg/kg s.c. sesame oil, after 3 d.
[7] abbreviates: 200 mg/kg s.c. sesame oil, after 4 d.
The mark [8] stands for this setting: 200 mg/kg s.c. sesame oil, after 7 d.
The mark [9] stands for this setting: 400 mg/kg s.c. sesame oil, after 4 h.
The mark [10] stands for this setting: 400 mg/kg s.c. sesame oil, after 1 d.
[11] abbreviates: 400 mg/kg s.c. sesame oil, after 2 d.
Where [12] appears, read: 400 mg/kg s.c. sesame oil, after 3 d.
Setting [13] is: 400 mg/kg s.c. sesame oil, after 4 d.
Setting [14] is: 400 mg/kg s.c. sesame oil, after 7 d.

`O=C1CCCN1CC#CCN1CCCC1` [Oxotremorine, oxotremorine, reference compound]: the “% of animals with a RT less than 40 seconds” value (from here on “% of animals”) turned out to be 10% in assay [1] (oxotremorine controls, 0.5 mg/kg i.p., 4 h); 10% in assay [1] (oxotremorine controls, 0.5 mg/kg i.p., 1 d); 10% in assay [1] (oxotremorine controls, 0.5 mg/kg i.p., 2 d); 10% in assay [1] (oxotremorine controls, 0.5 mg/kg i.p., 3 d); 0% in assay [1] (oxotremorine controls, 0.5 mg/kg i.p., 4 d); 0% in assay [1] (oxotremorine controls, 0.5 mg/kg i.p., 7 d).

In the case of `CCCCCCC(=O)OCCN1C2CCC1CC(=C1c3ccccc3CSc3ccccc31)C2` (racemic) [Example 3, dl N-(β-heptanoyloxyethyl)-11-(3'-nortropylidene)-6,11-dihydrodibenzo(b,e)thiepine], the “% inhibition of reactions: L (lacrymation)” value in assay [2] (after 4 h) was determined as 90%; in assay [2] (after 1 d) it was 30%; in assay [2] (after 2 d) it was 100%; in assay [2] (after 3 d), 20%; in assay [2] (after 4 d) it was 0%. For the same compound, the “% inhibition of reactions: S (salivation)” value in assay [2] (after 4 h) is given as 30%; in assay [2] (after 1 d), 20%; in assay [2] (after 2 d), 10%; in assay [2] (after 3 d), 0%; in assay [2] (after 4 d), 10%. The “% inhibition of reactions: T (trembling)” value in assay [2] (after 4 h) came out at 40%; in assay [2] (after 1 d), 0%; in assay [2] (after 2 d), 100%; in assay [2] (after 4 d), 20%. Besides, the “antitremorine activity (in words)” value in assay [2] (s.c. sesame oil, mice, Table I) is given as “prolonged antitremorine activity”. Also, the “% of animals” value in assay [1] (setting [3]) is listed as 50%; in assay [1] (setting [4]), 60%; in assay [1] (setting [5]) it was 50%; in assay [1] (setting [6]) it was 50%; in assay [1] (setting [7]) it was 40%; in assay [1] (setting [8]), 40%. The “% of animals” value in assay [1] (setting [9]) stood at 70%; in assay [1] (setting [10]), 40%; in assay [1] (setting [11]), 50%; in assay [1] (setting [12]), 30%; in assay [1] (setting [13]), 40%; in assay [1] (setting [14]), 20%.

Regarding `CCCCCCCCCC(=O)OCCN1C2CCC1CC(=C1c3ccccc3CSc3ccccc31)C2` (racemic) [Example 4, dl N-(β-decanoyloxyethyl)-11-(3'-nortropylidene)-6,11-dihydrodibenzo(b,e)thiepine], the “% of animals” value in assay [1] (setting [3]) is recorded as 100%; in assay [1] (setting [4]) it was 30%; in assay [1] (setting [5]), 30%; in assay [1] (setting [6]), 10%; in assay [1] (setting [7]), 0%; in assay [1] (setting [8]), 20%. Besides, the “% of animals” value in assay [1] (setting [9]) stood at 100%; in assay [1] (setting [10]), 60%; in assay [1] (setting [11]), 30%; in assay [1] (setting [12]) it was 30%; in assay [1] (setting [13]), 0%; in assay [1] (setting [14]), 30%.

Take `CCCCCCCCCCCCCCCC(=O)OCCN1C2CCC1CC(=C1c3ccccc3CSc3ccccc31)C2` (racemic) [Example 5, dl N-(β-palmitoyloxyethyl)-11-(3'-nortropylidene)-6,11-dihydrodibenzo(b,e)thiepine]: the “% of animals” value is 20% in assay [1] (setting [3]); 30% in assay [1] (setting [4]); 40% in assay [1] (setting [5]); 10% in assay [1] (setting [6]); 30% in assay [1] (setting [7]); 30% in assay [1] (setting [8]). Moreover, the “% of animals” value in assay [1] (setting [9]) came to 70%; in assay [1] (setting [10]) it was 60%; in assay [1] (setting [11]) it was 30%; in assay [1] (setting [12]), 20%; in assay [1] (setting [13]), 20%; in assay [1] (setting [14]) it was 30%.
